Laboratory results as given in patent US7981401B2, “Diuretic aerosols and methods of making and using them” (priority 2002, dated 2011).
Each block holds one compound with its values, some of them ahead of it.

What was measured:
[1] = Volatilization on flashbar and HPLC purity analysis of the condensation aerosol; type: physicochemical; details: heated to about 400° C. within about 200 ms, 15 L/min air
Excerpt: Purity of a diuretic containing aerosol may be determined using a number of different methods. It should be noted that when the term “purity” is used, it refers to the percentage of aerosol minus the percent byproduct produced in its formation. Byproducts for example, are those unwanted products produced during vaporization. For example, byproducts include thermal degradation products as well as any unwanted metabolites of the active compound or compounds. Examples of suitable methods for determining aerosol purity are described in Sekine et al., Journal of Forensic Science 32:1271-1280 (1987) and in Martin et al., Journal of Analytic Toxicology 13:158-162 (1989).
One suitable method involves the use of a trap. In this method, the aerosol is collected in a trap in order to determine the percent or fraction of byproduct. Any suitable trap may be used. Suitable traps include filters, glass wool, impingers, solvent traps, cold traps, and the like. Filters are often most desirable. The trap is then typically extracted with a solvent, e.g. acetonitrile, and the extract subjected to analysis by any of a variety of analytical methods known in the art, for example, gas, liquid, and high performance liquid chromatography particularly useful.
(§1) About 1.1 mg of ethacrynic acid (MW 303, melting point 122° C., oral dose 25 mg) was dip coated onto the stainless steel surface of a flashbar apparatus at a thickness of about 1.32 μm. (The flashbar is a cylinder 3.5 cm long and 1.3 cm in diameter consisting of a hollow tube of 0.005″ thick stainless steel.) Brass electrodes were connected to either end of the steel cylinder. The coated flashbar was secured in an electrical mount, which connected to two 1.0 Farad capacitors in parallel. An airway was provided by a 2 cm diameter glass sleeve placed around the flashbar. 15 L/min of room air were pulled by a house vacuum through the vaporization chamber and a filter housing, which contained a two-micron Teflon filter. A power supply charged the capacitors to 20.5 volts, at which point the circuit was closed with a switch and the stainless steel flashbar was resistively heated to about 400° C. within about 200 milliseconds. The drug aerosolized and flowed through the airway and into the filter. The Teflon filter was extracted with 5 mL of acetonitrile, and the sample was run through an HPLC for purity analysis.
as §1, with “1.01” for “1.1”, “1.21” for “1.32”
About 1.09 mg of bumetanide (MW 364, melting point 231° C., oral dose 0.5 mg) was dip coated onto the stainless steel surface of a flashbar apparatus at a thickness of about 1.3 μm. (The flashbar is a cylinder 3.5 cm long and 1.3 cm in diameter consisting of a hollow tube of 0.005″ thick stainless steel.) Brass electrodes were connected to either end of the steel cylinder. The coated flashbar was secured in an electrical mount, which connected to two 1.0 Farad capacitors in parallel. […]

[2] = type: in vivo, Beagle dog
Excerpt: This example is meant to illustrate one way in which toxicology and pharmacokinetic data may be investigated with respect to the bumetanide condensation aerosols described herein. Toxicology and pharmacokinetic data may be gathered by studying daily oropharyngeal inhalation of bumetanide condensation aerosols over a 14 day period using a beagle dog model.
Before treatment initiation, all animals are weighed and assigned to treatment groups using a randomization procedure. Animals are assigned into the following groups: bumetanide high dose, bumetanide mid dose, bumetanide low dose, and vehicle control at 3 animals per sex per dose. The dose levels for bumetanide are generally approximately 0.1 mg/kg for the low dose group, 0.5 mg/kg for the mid dose group, and 2 mg/kg for the high dose group. The dose levels can be refined through an initial dose ranging toxicology study.
Animals are treated with the test aerosols using an oropharyngeal face mask fitted with inlet and outlet tubes. During treatment, animals are placed in a restraint sling. A mask that allows the inhalation of test material to dogs is used. The test article is generated by vaporizing bumetanide by heating to roughly 400° C. The bumetanide is an approximately 1 micron thick film coating on a stainless steel foil, which was deposited on the foil by dip coating the foil into a solution of bumetanide dissolved in organic solvent.
The resulting aerosol formed by the condensation of the vaporized bumetanide is introduced into a mixing chamber via pre-dried compressed air. The mixing chamber is operated under slight positive pressure maintained by means of a gate valve located in the exhaust line. A vacuum pump is used to exhaust the inhalation chamber at the required flow rate and draw the contaminated air (excess aerosol and expired air) through a purifying system consisting of a 5 μm coarse filter before expelling the air from the building. The resulting atmosphere is carried to the dog mask via a delivery tube.
To ensure that the doses are correct, prior to the start of the treatment each day, atmosphere characterization of the test article aerosol is performed. Analysis of the aerosol particle size distribution for each bumetanide dose is conducted using a Cascade Impactor. Typical mass median aerodynamic diameter and geometric standard deviation measured during the study are 1.5 μm±2. Actual mask output concentrations of aerosol are measured during each exposure day from a sampling port from the animal breathing zone.
The achieved dose of active ingredient (mg/kg/day) for each treatment level is determined as follows: Achieved Dose of Active Ingredient=[RMV×Active Concentration×T×D]/BW
Where the achieved dose of the active ingredient is in mg/kg/day; the RMV (i.e., respiratory minute volume) is in L/min; the Active Concentration (i.e., chamber concentration of active ingredient determined by chemical analysis) is in mg/L; T (i.e., treatment time) is in minutes; D is the total aerosol deposition fraction, according to the particle size; and BW (i.e., mean body weight per sex per group from the regular body weight occasions during treatment) is in kg.
Dogs are treated with the bumetanide aerosol using the above approach to deliver the drug aerosol and compute the delivered dose. The exposure period required to deliver a dose is typically approximately 10 minutes. Plasma samples for pharmacokinetic analysis are collected on one or more treatment days. Samples are typically collected pre-dose, 2 minutes into dosing, and the end of dosing, 20 minutes post dose, 1 hour post dose, 3 hours post dose, 9 hours post dose, and 24 hours post dose. Samples are analyzed by an appropriate method such as LC/MS or LC/MS/MS to determine the pharmacokinetics of bumetanide absorption and elimination. […]

aerosol purity (HPLC) ([1]; film about 0.97 μm, from 88% formic acid): 99.76%
aerosol purity (HPLC) ([1]; film about 1.11 μm, manually coated): 100%
SMILES: Nc1nc(N)c2nc(-c3ccccc3)c(N)nc2n1 [triamterene]

SMILES: CCCCNc1cc(C(=O)O)cc(S(N)(=O)=O)c1Oc1ccccc1 [bumetanide]
mass median aerodynamic diameter of the aerosol ([2]; Cascade Impactor, typical value during the study): 1.5 μm
food consumption ([2]; dog, in vivo): roughly normal
gross pathology at necropsy ([2]; dog, in vivo): No treatment related findings
histopathological examination of gross lesions ([2]; dog, in vivo): no treatment related findings
histopathological examination of larynx, trachea, mainstem bronchi, lungs ([2]; dog, in vivo): No treatment related abnormalities are observed
time of peak plasma levels ([2]; dog, in vivo): ≤ 10 min
duration of the increase in urination following treatment ([2]; dog, inhalation): approximately 4 hour
urination immediately following drug administration ([2]; dog, inhalation): an increase in urination is noted
aerosol purity (HPLC) ([1]; film about 1.3 μm on stainless steel): 98.44%

aerosol purity (HPLC) ([1]; film about 1.21 μm on stainless steel): 99.57%
aerosol purity (HPLC) ([1]; film about 1.32 μm on stainless steel): 99.83%
SMILES: C=C(CC)C(=O)c1ccc(OCC(=O)O)c(Cl)c1Cl [ethacrynic acid]

aerosol purity (HPLC) ([1]; film about 0.85 μm on stainless steel): 100%
aerosol purity (HPLC) ([1]; film about 1.01 μm on stainless steel): 100%
SMILES: CC(=O)S[C@@H]1CC2=CC(=O)CC[C@]2(C)[C@H]2CC[C@@]3(C)[C@@H](CC[C@@]34CCC(=O)O4)[C@H]12 [spironolactone]
